Where a name gives a salt, the structure may show the parent alone.
Key:
[1] = test system: lymphocytic leukemia P388; assay: in vivo lymphocytic leukemia P388 test; design: species or system CD2 F1 mice; conditions: Mus musculus, P388, ip, 120 h, intraperitoneally once daily for five days, read-out: P388 in vivo T/C × 100
How it was run: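 CD2 F1 mice (6–7 per group) inoculated i.p. with P388 ascitic cells; compound dosed i.p. once daily for 5 consecutive days after inoculation. Survival followed 30 days; efficacy as treated/control survival time ×100 (≥125 criterion); "toxic" if all animals died within 4 days of first dose.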

Branhamella catarrhalis = assay: in vitro antibacterial/antifungal (ABF) agar-disk diffusion assay; type: cell-based; conditions: Moraxella catarrhalis, read-out: ABF zone diameter B. catarrh.; for zone of inhibition at 100 µg/mL: dose .1 mg/ml; for zone of inhibition at 500 µg/mL: dose .5 mg/ml
Procedure: (§1) (b) Another test protocol is the in vitro antibacterial/antifungal (ABF) test. Compounds are tested for antimicrobial activity in an agar-disk diffusion assay, a standard microbiological technique for testing antibiotics. After incubation of each culture with a test compound, a zone of inhibition is determined. The zone diameter (mm) of active compounds ranges from a minimum of 14 mm to as high as 60 mm, with a greater diameter reflecting higher activity. For convenience, values are reported for (Alcaligenes viscolactis, Sarcina lutea, Branhamella catarrhalis, Bacillus subtilis, and Streptococcus faecalis.

Alcaligenes viscolactis = assay: as above; type: cell-based; conditions: read-out: ABF zone diameter A. viscol.; for zone of inhibition at 100 µg/mL: dose .1 mg/ml
Procedure: as §1

Sarcina lutea = assay: as above; type: cell-based; conditions: Micrococcus luteus, read-out: ABF zone diameter S. lutea; for zone of inhibition at 1000 µg/mL: dose 1 mg/ml; for zone of inhibition at 500 µg/mL: dose .5 mg/ml
Procedure: as §1

Bacillus subtilis = assay: as above; type: cell-based; conditions: for zone of inhibition at 100 µg/mL: dose .1 mg/ml
Procedure: as §1

Streptococcus faecalis = assay: as above; type: cell-based; conditions: Enterococcus faecalis, read-out: ABF zone diameter S. faecalis; for zone of inhibition at 500 µg/mL: dose .5 mg/ml; for zone of inhibition at 1000 µg/mL: dose 1 mg/ml
Procedure: as §1

HCT-8 cells = assay: in vitro proliferating human colon adenocarcinoma (HCA) cell screen, HCT-8; type: cell-based; conditions: HCT-8 cells, 60 to 65 hours, molar concentration for 50% inhibition of growth, read-out: HCA in vitro ID50 avg.
How it was run: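 HCT-8 colon adenocarcinoma cells seeded in RPMI 1640 + 10% FCS, grown 48 h, then exposed to compounds for 60-65 h at 37 °C, 5% CO2. Nuclei counted by Coulter counter after lysis; ID50 is the molar concentration giving 50% growth inhibition.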

[2] = Bacillus subtilis, read-out: ABF zone diameter B. subtil.

| Structure (SMILES) | response vs control in vivo at 6.25 mg/kg [1] [%] | zone of inhibition at 100 µg/mL (Branhamella catarrhalis) [mm] | zone of inhibition at 100 µg/mL (Alcaligenes viscolactis) [mm] | zone of inhibition at 100 µg/mL (Bacillus subtilis; [2]) [mm] | zone of inhibition at 500 µg/mL (Streptococcus faecalis) [mm] | IC50 (HCT-8 cells) [µM] | response vs control in vivo at 12.5 mg/kg [1] [%] | response vs control in vivo at 25 mg/kg [1] [%] | response vs control in vivo at 50 mg/kg [1] [%] | zone of inhibition at 500 µg/mL (Branhamella catarrhalis) [mm] | zone of inhibition at 500 µg/mL (Sarcina lutea) [mm] | other results |
| --- | --- | --- | --- | --- | --- | --- | --- | --- | --- | --- | --- | --- |
| CCN(CC)CCn1nc2c3c(c([N+](=O)[O-])ccc31)Nc1ccccc1-2 [Example 1, N,N-Diethyl-5-nitropyrazolo[3,4,5-kl]acridine-2(6H)-ethanamine, methanesulfonate (1:1)] | 165 | 17 | 22 | 15 | 17 | 0.3 |  |  |  |  |  | response vs control in vivo at 2.5 mg/kg ([1]; 2.50 mg/kg): 122%; response vs control in vivo at 5 mg/kg ([1]; 5.00 mg/kg): 163%; zone of inhibition at 100 µg/mL (Sarcina lutea; dose .1 mg/ml): 14 mm |
| COc1ccc2c(c1)-c1nn(CCN(C)C)c3ccc([N+](=O)[O-])c(c13)N2 [Example 5a, 9-methoxy-N,N-dimethyl-5-nitropyrazolo[3,4,5-kl]acridine-2(6H)=-ethanamine, methanesulfonate] |  |  | 19 | 14 | 15 | 0.1 | 181 | 228 | 275 | 21 |  | zone of inhibition at 1000 µg/mL (Sarcina lutea): 16 mm |
| CCN(CC)CCn1nc2c3c(c([N+](=O)[O-])ccc31)Nc1ccc(OC)cc1-2 [Example 5, N,N-Diethyl-9-methoxy-5-nitropyrazolo-[3,4,5-kl]acridine-2(6H)-ethanamine, methanesulfonate (1:1)] | 158 | 16 | 18 | 15 |  | 0.12 | 197 | 242 |  |  | 14 | response vs control in vivo at 3.12 mg/kg [1]: 143%; zone of inhibition at 1000 µg/mL (Streptococcus faecalis): 14 mm |
| CCN(CC)CCn1nc2c3c(c([N+](=O)[O-])ccc31)N(C)c1ccc(OC)cc1-2 [Example 6, N,N-Diethyl-9-methoxy-6-methyl-5-nitropyrazolo[3,4,5-kl]acridine-2(6H)-ethanamine, monomethanesulfonate] | 142 |  | 15 |  |  | 0.31 | 151 | 173 | 230 | 16 | 15 | zone of inhibition at 500 µg/mL (Bacillus subtilis; Bacillus subtilis, dose .5 mg/ml, read-out: ABF zone diameter B. subtil.): 19 mm; zone of inhibition at 1000 µg/mL (Streptococcus faecalis): 15 mm |
| CCN(CC)CCn1nc2c3c(c([N+](=O)[O-])ccc31)N(C)c1ccccc1-2 [Example 2, N,N-Diethyl-6-methyl-5-nitropyrazolo[3,4,5-kl]acridine-2(6H)-ethanamine, methanesulfonate] |  | 17 | 20 | 18 | 16 | 1 | 126 | 184 |  |  |  |  |
| CN1c2ccccc2-c2nn(CCNCCO)c3ccc([N+](=O)[O-])c1c23 [Example 4, 2-[[2-[6-Methyl-5-nitropyrazolo[3,4,5-kl-acridin-2-(6H)-yl]ethyl]amino]ethanol, methanesulfonate] |  | 16 | 19 | 20 | 18 |  |  | 120 | 180 |  | 19 |  |
| CCN(CC)CCn1nc2c3c(c([N+](=O)[O-])ccc31)Nc1ccc(O)cc1-2 [Example 10, 2-[2-(Diethylamino)ethyl]-2,6-dihydro-5-nitropyrazolo[3,4,5 kl]acridin-9-ol, monomethanesulfonate] |  | 18 |  | 17 | 16 | 0.013 |  |  |  |  |  | response vs control in vivo at 0.38 mg/kg ([1]; 0.38 mg/kg): 138%; response vs control in vivo at 0.75 mg/kg ([1]; 0.75 mg/kg): 149%; response vs control in vivo at 1.5 mg/kg ([1]; 1.50 mg/kg): 158%; response vs control in vivo at 3 mg/kg ([1]; 3.00 mg/kg): 180%; zone of inhibition at 10 µg/mL (Alcaligenes viscolactis; dose .01 mg/ml): 15 mm; zone of inhibition at 1000 µg/mL (Sarcina lutea): 14 mm |
| O=[N+]([O-])c1ccc2c3c(nn2CCNCCO)-c2ccccc2Nc13 [Example 3, 2-[[2-(5-Nitropyrazolo[3,4,5-kl[acridin-2(6H)-yl)ethyl]amino]ethanol, monohydrochloride] | 132 |  | 21 | 18 | 15 |  | 158 | 185 |  | 25 | 14 | response vs control in vivo at 3.12 mg/kg [1]: 122% |
| CCN(CC)CCn1nc2ccc([N+](=O)[O-])c3c2c1-c1ccccc1N3 [Example 8, yl-5-nitropyrazolo[3,4,5-kl]acridine-1(6H)-ethanamine, monomethanesulfonate] |  |  | 23 |  | 18 |  | 140 |  | 211 |  | 18 | zone of inhibition at 10 µg/mL (Branhamella catarrhalis; dose .01 mg/ml): 15 mm; ABF zone diameter B. subtil. (Bacillus subtilis; dose not given): 0 mm |
